Assay [1] relates to PAM4880 producing L1. Description: MIC, engineered isogenic strain. Type of assay: cell-based, P. aeruginosa. As to conditions: L1, class B; BLIs at fixed 4 µg/mL.
Assay [2] relates to PAM4823 producing CTX-M-27. Description: MIC, engineered isogenic strain. Type of assay: cell-based, P. aeruginosa. To be noted: CTX-M-27, class A; BLIs at fixed 4 µg/mL.
In assay [3] the test system is PAM4908 producing VEB-1. As to the kind of experiment: MIC, engineered isogenic strain. To be noted: VEB-1, class A; BLIs at fixed 4 µg/mL. The format is cell-based, P. aeruginosa.
For assay [4], the system named is PAM4842 producing PER-2. Description: MIC, engineered isogenic strain. Type of assay: cell-based, P. aeruginosa. To be noted: PER-2, class A; BLIs at fixed 4 µg/mL.
Assay [5] has as its system PAM4889 producing IMP-26. As to the kind of experiment: MIC, engineered isogenic strain. Type of assay: cell-based, P. aeruginosa. To be noted: IMP-26, class B; BLIs at fixed 4 µg/mL.
Assay [6] concerns ESBL-producing Enterobacterales. Description: organism not typed. The format is cell-based. To be noted: for MIC50: read-out: MIC50; for MIC90: read-out: MIC90.
Assay [7] deals with PAM4876 producing OXA-72. As to the kind of experiment: MIC, engineered isogenic strain. The format is cell-based, P. aeruginosa. As to conditions: OXA-72, class D; BLIs at fixed 4 µg/mL.
Assay [8] has as its system ESBL-producing and carbapenem-resistant Enterobacterales (All, N = 1028). As to the kind of experiment: organism not typed. The format is cell-based. To be noted: for MIC50: read-out: MIC50; for MIC90: read-out: MIC90.
The subject of assay [9] is PAM4175 (no β-lactamase). As to the kind of experiment: MIC, engineered isogenic strain. Type of assay: cell-based, P. aeruginosa. To be noted: BLIs at fixed 4 µg/mL.
In assay [10] the test system is PAM4888 producing IMP-4. Description: MIC, engineered isogenic strain. As to conditions: IMP-4, class B; BLIs at fixed 4 µg/mL. The format is cell-based, P. aeruginosa.
Assay [11] has as its system carbapenem-resistant strains of Enterobacterales with cefepime-taniborbactam MIC >8 µg/mL. As to the kind of experiment: MIC testing of CRE with reduced cefepime-taniborbactam susceptibility (Table 6, Fig 1). Type of assay: cell-based. Here is the method: Isolates were tested for antimicrobial susceptibility using the broth microdilution methodology per CLSI M07 (2018) guidelines ([40]). JMI Laboratories produced frozen-form 96-well panels with cation-adjusted Mueller-Hinton broth as the testing medium. Current CLSI quality assurance practices were followed when performing the susceptibility tests. MIC values were validated by concurrently testing the following CLSI-recommended ([27]) QC reference strains: E. coli NCTC 13353 (CTX-M-15), Klebsiella pneumoniae ATCC BAA-2814 (KPC-3), Klebsiella pneumoniae ATCC BAA-1705 (KPC-2), and K. pneumoniae ATCC 700603 (SHV-18). The inoculum density during susceptibility testing was monitored by bacterial colony counts. Where applicable, QC ranges for tested reference strains were those approved or published by the CLSI ([27]).

For assay [12], the system named is PAM4846 producing OXA-9. As to the kind of experiment: MIC, engineered isogenic strain. Type of assay: cell-based, P. aeruginosa. As to conditions: OXA-9, class D; BLIs at fixed 4 µg/mL.
Assay [13] has as its system PAM4179 producing NDM-1. As to the kind of experiment: MIC, engineered isogenic strain. To be noted: NDM-1, class B; BLIs at fixed 4 µg/mL. The format is cell-based, P. aeruginosa.
Assay [14] relates to PAM4878 producing TEM-10. As to the kind of experiment: MIC, engineered isogenic strain. Type of assay: cell-based, P. aeruginosa. To be noted: TEM-10, class A; BLIs at fixed 4 µg/mL.
Assay [15] relates to PAM4887 producing IMP-1. Description: MIC, engineered isogenic strain. The format is cell-based, P. aeruginosa. As to conditions: IMP-1, class B; BLIs at fixed 4 µg/mL.
Assay [16] concerns PAM4917 producing NDM-7. Description: MIC, engineered isogenic strain. Type of assay: cell-based, P. aeruginosa. To be noted: NDM-7, class B; BLIs at fixed 4 µg/mL.
Assay [17] deals with PAM4875 producing OXA-23. As to the kind of experiment: MIC, engineered isogenic strain. The format is cell-based, P. aeruginosa. To be noted: OXA-23, class D; BLIs at fixed 4 µg/mL.
In assay [18] the test system is PAM4883 producing GIM-1. As to the kind of experiment: MIC, engineered isogenic strain. Type of assay: cell-based, P. aeruginosa. As to conditions: GIM-1, class B; BLIs at fixed 4 µg/mL.
For assay [19], the system named is PAM4825 producing MIR-1. Description: MIC, engineered isogenic strain. The format is cell-based, P. aeruginosa. To be noted: MIR-1, class C; BLIs at fixed 4 µg/mL.
The subject of assay [20] is PAM4869 producing PDC-1. As to the kind of experiment: MIC, engineered isogenic strain. The format is cell-based, P. aeruginosa. As to conditions: PDC-1, class C; BLIs at fixed 4 µg/mL.
Assay [21] deals with T1, VIM-1 in whole cells of KP1015 (OmpK36 GD repeat) (Pseudomonas aeruginosa, UniProt A0A0F7KYQ8).
T1 construct: endogenous in cells; host or cells: K. pneumoniae KP1015
Description: cell-based. On the set-up: species or system K. pneumoniae.

Assay [22] deals with T2, VIM-1 (lysate of KP1015) (Pseudomonas aeruginosa, UniProt A0A0F7KYQ8).
T2 construct: endogenous in cells; host or cells: K. pneumoniae KP1015
As to the kind of experiment: IC50 of β-lactamase inhibition (imipenem cleavage) in cell lysates. Type of assay: biochemical, K. pneumoniae.

Assay [23] addresses OXA-48 (Klebsiella pneumoniae, UniProt Q6XEC0). As to the kind of experiment: Ki app of β-lactamase inhibition, purified enzyme. The format is biochemical, Enterobacterales. As to conditions: 10-minute preincubation; nitrocefin substrate. Here is the method: The majority of purified β-lactamase enzymes used in the study were either expressed and purified internally ([35]) or obtained from Emerald Biostructures (Bainbridge Island, WA, USA). L1 enzyme was purified as described in reference ([36]).
Enzymes were mixed with BLIs at concentrations varying from 160 to 0.0027 µM in 50-mM Na-phosphate pH7.0, 0.1-mg/mL bovide serum albumin (BSA) (buffer A; 20-µM ZnCl2 was also added for all metalloenzymes) and incubated for 10 minutes at 37°C. Nitrocefin (50 µM) (10 µM for SHV-12) or 100 µM of imipenem (prewarmed at 37°C for 10 minutes) was added, and substrate cleavage profiles were recorded at 37°C at 490 nm every 10 seconds for 10 minutes or at 294 nm every 30 seconds for 1 hour for nitrocefin and imipenem, respectively. […] Ki app values (Ki for metalloenzymes) were calculated by the method of Waley ([37]).

One may read the MIC as the lowest concentration that inhibits growth of the organism. A lower MIC goes with a more susceptible organism. What is called MIC50 is an inhibitory concentration at the 50% level, which refers to growth in some studies and to a panel of isolates in others. The MIC90 is an inhibitory concentration at the 90% level, which refers to growth in some studies and to a panel of isolates in others. One may read the IC50 as the point on the concentration scale where inhibition reaches its midpoint.

≈ marks a conversion by molar mass, not a printed value. Where two headings read alike, the source gives them in different places.

Chain of OXA-48 (Q6XEC0 23-265 limits assumed): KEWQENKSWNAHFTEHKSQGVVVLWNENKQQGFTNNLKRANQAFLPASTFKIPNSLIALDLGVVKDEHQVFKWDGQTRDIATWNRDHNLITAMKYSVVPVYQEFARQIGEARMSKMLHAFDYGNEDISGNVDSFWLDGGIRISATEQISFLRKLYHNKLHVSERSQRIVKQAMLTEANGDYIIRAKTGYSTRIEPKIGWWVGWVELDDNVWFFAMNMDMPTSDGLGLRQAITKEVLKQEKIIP

For the molecule `CO/N=C(\C(=O)N[C@@H]1C(=O)N2C(C(=O)[O-])=C(C[N+]3(C)CCCC3)CS[C@H]12)c1csc(N)n1` [FEP, cefepime], the minimum inhibitory concentration (MIC) in assay [1] was 4 µg/mL (≈ 8.32 µM); in assay [2] it was more than 64 µg/mL; in assay [3], more than 64 µg/mL; in assay [4] it was 64 µg/mL (≈ 133 µM); in assay [5] it was 64 µg/mL (≈ 133 µM); in assay [7], 2 µg/mL (≈ 4.16 µM). For the same molecule, the minimal inhibitory concentration (MIC) was 0.25 µg/mL (≈ 0.52 µM) in assay [9]; 32 µg/mL (≈ 66.6 µM) in [10]; 2 µg/mL (≈ 4.16 µM) in assay [12]; more than 64 µg/mL in assay [13]; 16 µg/mL (≈ 33.3 µM) in [14]; 64 µg/mL (≈ 133 µM) in assay [15]. Also, the minimal inhibitory concentration (MIC) in [16] was more than 64 µg/mL; in [17] it was 2 µg/mL (≈ 4.16 µM); in assay [18], 8 µg/mL (≈ 16.6 µM); in [19], 2 µg/mL (≈ 4.16 µM); in assay [20] it was 4 µg/mL (≈ 8.32 µM). The MIC50 was 16 µg/mL (≈ 33.3 µM) in assay [6]; 64 µg/mL (≈ 133 µM) in assay [8]; 64 µg/mL in assay [11]; 64 µg/mL in [11] (All MBL (N = 129)); 32 µg/mL in assay [11] (IMP (N = 20)); 64 µg/mL in assay [11] (KPC and OXA-48 (N = 12)). Also, the MIC50 in assay [11] (MBL negative (N = 34)) was 64 µg/mL; in assay [11] (NDN (N = 101)), 64 µg/mL; in assay [11] (Non-CP CRE (N = 22)) it was 64 µg/mL; in assay [11] (VIM (N = 8)), more than 64 µg/mL. For the same molecule, the MIC90 in assay [6] was more than 64 µg/mL; in assay [8], more than 64 µg/mL; in [11] it was more than 64 µg/mL; in assay [11] (All MBL (N = 129)), more than 64 µg/mL; in assay [11] (IMP (N = 20)), more than 64 µg/mL; in [11] (KPC and OXA-48 (N = 12)), more than 64 µg/mL. For the same molecule, the MIC90 in assay [11] (MBL negative (N = 34)), in assay [11] (NDN (N = 101)) and in [11] (Non-CP CRE (N = 22)) was more than 64 µg/mL in each case.

With `O=C(O)c1c(F)ccc2c1OB(O)[C@@H]1C[C@H]21` [Xeruborbactam, xeruborbactam], the IC50 turned out to be 70000 ± 13400 nM in [21] and 250 ± 20 nM in [22]. In assay [23], this molecule returned a Ki of 0.22 ± 0.08 nM.

As for `NCCN[C@H]1CC[C@H](CC(=O)N[C@H]2Cc3cccc(C(=O)O)c3OB2O)CC1` [Taniborbactam, taniborbactam], the half-inhibitory concentration (IC50) in assay [21] (read-out: IC50 of β-lactamase inhibition in whole cells) amounted to 39100 ± 8200 nM; in [22] (KP1015, VIM-1, imipenem cleavage, read-out: IC50 of β-lactamase inhibition in cell lysates), 190 ± 10 nM. In assay [23], this molecule registered a Ki of 6.1 ± 0.7 nM.

`C[C@@H](O)[C@H]1C(=O)N2C(C(=O)O)=C(S[C@@H]3CN[C@H](C(=O)N(C)C)C3)[C@H](C)[C@H]12` [MEM, meropenem]: the MIC in [1] is 32 µg/mL (≈ 83.4 µM); in assay [2], 0.5 µg/mL (≈ 1.3 µM); in [3] it was 0.5 µg/mL (≈ 1.3 µM); in [4] it was 0.125 µg/mL (≈ 0.326 µM); in assay [5], 8 µg/mL (≈ 20.9 µM); in assay [7], 2 µg/mL (≈ 5.22 µM). In addition, the MIC in assay [9] was 0.125 ^ a; in [10], 4 µg/mL (≈ 10.4 µM); in [12], 0.25 µg/mL (≈ 0.652 µM); in assay [13], 32 µg/mL (≈ 83.4 µM); in assay [14] it was 0.125 µg/mL (≈ 0.326 µM); in [15] it was 4 µg/mL (≈ 10.4 µM). Further, the MIC in assay [16] turned out to be 32 µg/mL (≈ 83.4 µM); in [17], 2 µg/mL (≈ 5.22 µM); in assay [18], 32 µg/mL (≈ 83.4 µM); in [19], 0.5 µg/mL (≈ 1.3 µM); in assay [20], 0.5 µg/mL (≈ 1.3 µM). Further, the MIC50 in assay [6] was not above 0.03 µg/mL; in assay [8], 0.5 µg/mL (≈ 1.3 µM); in assay [11], more than 64 µg/mL; in assay [11] (All MBL (N = 129)) it was more than 64 µg/mL; in assay [11] (IMP (N = 20)), 16 µg/mL; in assay [11] (KPC and OXA-48 (N = 12)) it was 32 µg/mL. Moreover, the MIC50 is 16 µg/mL in assay [11] (MBL negative (N = 34)), more than 64 µg/mL in [11] (NDN (N = 101)), 16 µg/mL in assay [11] (Non-CP CRE (N = 22)) and more than 64 µg/mL in assay [11] (VIM (N = 8)). Further, the MIC90 in assay [6] was 0.06 µg/mL (≈ 0.156 µM); in [8], more than 64 µg/mL; in [11] it was more than 64 µg/mL; in [11] (All MBL (N = 129)) it was more than 64 µg/mL; in [11] (IMP (N = 20)), 64 µg/mL; in assay [11] (KPC and OXA-48 (N = 12)), more than 64 µg/mL. Further, the MIC90 in assay [11] (MBL negative (N = 34)) is more than 64 µg/mL; in assay [11] (NDN (N = 101)) it was more than 64 µg/mL; in assay [11] (Non-CP CRE (N = 22)), 32 µg/mL.

Values taken from paper PMC10648875 (Antimicrobial Agents and Chemotherapy, 2023).
